Measured values reported in PubChem BioAssay AID1996.
Values after ≈ are worked out from the molar mass of the structure shown.

Conditions: buffer; pH 7.4; 200.0 µM

Row | Compound | solubility kinetic [µg/mL]
1 | CC(C)c1cc(C(=O)O)c2ccccc2n1 | 28.2 (≈ 131 µM)
2 | CN(C)c1cc(-c2ccc(F)cc2)oc(=O)c1Cl | 7.2 (≈ 26.9 µM)
3 | COc1ccc2cc(CCl)c(Cl)nc2c1 | 19.2 (≈ 79.3 µM)
4 | CSc1sc(C(=O)NCC2CC2)cc1S(=O)(=O)C(C)C | 49.3 (≈ 148 µM)
5 | CCOc1ccccc1C(=O)NCCNC(=O)c1ccccc1OCC | 40.6 (≈ 114 µM)
6 | O=C(COC(=O)CCNS(=O)(=O)c1ccccc1)NC1CC1 | 43.8 (≈ 134 µM)
7 | O=C(O)/C(=C\c1ccco1)NC(=O)c1ccco1 | > 37.1
8 | Cn1cc(CCC(=O)NCCCc2ccccc2)c2ccccc21 | 25.8 (≈ 80.5 µM)
9 | NC(=O)c1ccccc1NC(=O)CC12CC3CC(CC(C3)C1)C2 | 4.1 (≈ 13.1 µM)
10 | CCC(=O)Nc1ccc(-c2ccc(NC(=O)CC)c(OC)c2)cc1OC | 7.1 (≈ 19.9 µM)
11 | CC1CCCN(C(=O)CSc2nnc(-c3ccncc3)n2C)C1 (stereo unspecified) | > 49.7
12 | Cc1ccc(OC(=O)c2ccc(Cl)c([N+](=O)[O-])c2)cn1 | 42.8 (≈ 146 µM)
13 | O=C(Nc1ccccc1-c1ccccc1)c1ccccc1 | > 41
14 | Cn1c(CO)cnc1S(=O)(=O)Cc1c(Cl)cccc1Cl | > 50.3
15 | O=c1[nH]c(/C=C\c2ccc(O)c(Cl)c2)nc(O)c1[N+](=O)[O-] | 44 (≈ 142 µM)
16 | O=C(NC(=S)N1CCN(c2ccccc2)CC1)c1c(F)cccc1F | > 54.2
17 | COc1ccc(CCNS(=O)(=O)c2ccc(Cl)cc2)cc1OC | > 53.4
18 | Clc1ccc(OCC#CCN2CCCC2)cc1.O=C(O)C(=O)O | 45.1
19 | CC1=CC(=O)C(C(C)C)=C/C1=N/OS(=O)(=O)c1ccccc1 | 7.9 (≈ 24.7 µM)
20 | O=[N+]([O-])c1ccccc1S(=O)(=O)N1CCCc2ccccc21 | 10.9 (≈ 34.2 µM)
21 | O=S(=O)(CCSc1ccc(C(F)(F)F)cn1)c1ccc(Cl)cc1 | < 0.8
22 | CN(C(=O)Nc1cccc(C(F)(F)F)c1)C1CCCCC1 | < 0.3
23 | O=S(=O)(NCc1ccc(Cl)cc1Cl)c1cccs1 | 40.6 (≈ 126 µM)
24 | CC(C)[C@H](NC(=O)OCc1ccccc1)C(=O)OCC(=O)c1ccccc1 | 16.1 (≈ 43.6 µM)
25 | O=C1NC2(CCCCCC2)C(=O)N1Cc1ccccc1Br | 17.1 (≈ 48.7 µM)

Row | Compound | solubility kinetic [µg/mL]
26 | FC(F)(F)c1cnc2c(c1)[nH]c(=S)n2-c1ccc(Cl)cc1 | 3 (≈ 9.1 µM)
27 | O=C(O)CN1C(=O)c2ccc(Oc3ccc([N+](=O)[O-])cc3)cc2C1=O | > 51.3
28 | COc1ccc(OC)c(-n2c(SCC(=O)NCC3CCCO3)nc3ccccc3c2=O)c1 (stereo unspecified) | > 68.3
29 | Cc1cc(C)c(NC(=S)N(C)C)cc1C | > 33.4
30 | CCC(=O)Nc1ccc(C(=O)COC(=O)Cc2ccsc2)cc1 | 15.9 (≈ 48 µM)
31 | CCOc1cc(OCC)cc(C(=O)NCc2ccco2)c1 | 5.5 (≈ 19 µM)
32 | O=C(Nc1ccc(Cl)cc1Cl)c1cc2ccccc2o1 | < 0.7
33 | Nc1nc2c(s1)CCCCCCCCCC2 | 6.6 (≈ 27.7 µM)
34 | N#Cc1ccc(OC(=O)c2cnccn2)cc1 | 31.7 (≈ 141 µM)
35 | CNC(=O)Nc1ccc2nc(C)oc2c1 | > 30.8
36 | Cc1noc(C)c1COc1cccc(C(=O)NC(C)(C)C)c1 | > 45.4
37 | Cc1cc(S(=O)(=O)Nc2c(C)nn(C)c2C)c(Cl)cc1Cl | > 52.2
38 | O=C(Nc1ccc(-c2n[nH]c(=S)o2)cc1)c1ccccc1 | > 44.6
39 | COc1cccc(CNC(=O)CCc2ccc(OC)c(OC)c2)c1 | > 49.4
40 | Cc1cc(C)c2c(CN3CCOCC3)cc(=O)oc2c1C | 26.5 (≈ 92.2 µM)
41 | Cc1nccn1Cc1ccccc1 | 24.7 (≈ 143 µM)
42 | CC1CCc2sc3ncnc(N4CCN(C)CC4)c3c2C1 (stereo unspecified) | > 45.4
43 | O=C(NN1CCOCC1)c1ccc(Br)cc1 | > 42.8
44 | COc1ccc(CN2CCC(C(=O)c3ccc(F)cc3)CC2)cc1 | > 49.1
45 | CN1CCN(S(=O)(=O)c2ccc(Cl)c3ccccc23)CC1 | 45.1 (≈ 139 µM)
46 | C=CCn1c(O)c(C2=c3ccccc3=NC2=O)c2ccccc21 | < 0.3
47 | CC(=O)c1ccc(NC(=O)C(C)NCc2ccccc2Cl)cc1 (stereo unspecified) | 38.3 (≈ 116 µM)
48 | O=C(c1ccc(Cl)s1)N1CCN(c2ncccn2)CC1 | > 46.3
49 | Cc1c2c(n3c(nc4ccccc43)c1C#N)N(CCCN(C)C)CC2 | > 50
50 | CSc1nnc(C)c(=O)n1COC(=O)c1ccccc1 | > 43.7

Row | Compound | solubility kinetic [µg/mL]
51 | O=C(NCc1ccccc1)c1ccc(=O)oc1 | > 34.4
52 | O=C(Nc1ccccc1Cl)c1cc[n+]([O-])cc1 | > 37.3
53 | CC1CN(c2ccc(S(=O)(=O)N3CCCC3)cn2)CC(C)O1 (stereo unspecified) | > 48.8
54 | Cc1ccc(CNC(=S)N2CCOCC2)cc1 | > 37.6
55 | CCOC(=O)c1c(C)[nH]c(C(=O)COC(=O)c2ccc([N+](=O)[O-])o2)c1C | 4.4 (≈ 12.1 µM)
56 | Cc1sc(N)nc1C12CC3CC(CC(C3)C1)C2 | 3.3 (≈ 13.3 µM)
57 | COc1cc(NC(=S)NC2CC(C)(C)NC(C)(C)C2)cc(OC)c1 | > 52.7
58 | COc1cccc(Oc2ccc(C(F)(F)F)cc2NC(=O)CN2C(=O)NC3(CCCC3)C2=O)c1 | 2.7 (≈ 5.66 µM)
59 | Cc1nc(C(=O)NNC(=O)c2cccc(Cl)c2)c(C(F)(F)F)o1 | > 52.2
60 | CCc1ccccc1NC(=O)NCc1cccnc1 | > 38.3
61 | O=C(COC(=O)c1cc(S(=O)(=O)N2CCCC2)ccc1O)Nc1ccc(F)cc1F | > 66.1
62 | CC(=O)N1CCC2(CC1)NC(=O)N(c1ccccc1)N2 | > 41.1
63 | O=C(Nc1sc2c(c1C(=O)O)CCCCC2)c1cccnc1 | > 47.5
64 | Cc1cc(C(=O)N2CCc3ccccc3C2)no1 | > 36.3
65 | Cc1ccc(OCC(=O)Nc2ccon2)c([N+](=O)[O-])c1 | 4.5 (≈ 16.2 µM)
66 | O=C(CSc1ccc(C(F)(F)F)cn1)Nc1ccccc1 | 16.8 (≈ 53.8 µM)
67 | CCC(=O)Nc1ccc(C(=O)CSc2nc(N)cc(N)n2)cc1 | 48.3 (≈ 146 µM)
68 | Fc1ccccc1N1CCN(CC2CCCCC2)CC1 | 6.2 (≈ 22.4 µM)
69 | NC(=O)c1cnn(-c2ccc3ccccc3c2)c1N | > 37.8
70 | Cc1oc2c(cc(NS(=O)(=O)c3ccc(Cl)cc3)c3ccccc32)c1C(=O)O | > 62.4
71 | CCC1CC(C(=O)Nc2ccccc2)C(=O)O1 (stereo unspecified) | > 35
72 | COC(=O)c1cc(C)sc1NC(=O)c1ccco1 | < 0.6
73 | O=C(NCC1CCCO1)c1ccc([N+](=O)[O-])o1 (stereo unspecified) | > 36
74 | Cc1noc(C)c1COc1cccc(C(=O)OC(C)C#N)c1 (stereo unspecified) | 43.2 (≈ 144 µM)
75 | Cc1ccc(C(=O)NCC(=O)Nc2ncccc2C)s1 | > 43.4

Row | Compound | solubility kinetic [µg/mL]
76 | CCc1nonc1NC(=O)c1oc2ccc(C)cc2c1C | < 0.2
77 | CSC1=C(C#N)C(=O)NC(c2ccccc2O)S1 (stereo unspecified) | > 41.8
78 | Cc1ccc2c(CN3CC(C)CC(C)C3)cc(=O)oc2c1C (stereo unspecified) | 3.3 (≈ 11 µM)
79 | CCOc1ccccc1NC(=O)Nc1ccccn1 | < 0.2
80 | CCN1C(=O)CCCc2ccccc21 | > 28.4
81 | CC(C)N(Cc1ccccc1)C(=O)CN1C(=O)c2ccccc2C1=O | > 50.5
82 | Cn1cccc1C(=O)OCC(=O)Nc1ccc2c(c1)OCO2 | 17.4 (≈ 57.6 µM)
83 | CC1(C)Cc2nc3sc4c(SCC(=O)O)ncnc4c3cc2CO1 | 53.2 (≈ 147 µM)
84 | CC(C)NC(=O)c1ccc(COc2ccc(C(C)(C)C)cc2)o1 | 0.7 (≈ 2.22 µM)
85 | CNS(=O)(=O)c1cc(Cl)ccc1Sc1ccccc1C(=O)O | > 53.7
86 | CCCN(CCC)C(=O)Nc1cc(Cl)ccc1OC | 31.9 (≈ 112 µM)
87 | CCOc1ccc(OCCC(=O)OCC(=O)NCc2ccccc2)cc1 | 46.3 (≈ 130 µM)
88 | O=C(CCl)N(c1ccccc1)C1CCCCC1 | 36.6 (≈ 145 µM)
89 | S=C(c1ccccc1)N1CCSCC1 | > 33.5
90 | COCCn1c(SCC(=O)Nc2cccnc2Cl)nc2ccccc21 | 7.4 (≈ 19.6 µM)
91 | O=S(=O)(Nc1cccc(Oc2ccc(Cl)cc2)n1)c1ccc(F)cc1 | 41.9 (≈ 111 µM)
92 | COc1cccc(Oc2nc(-c3ccccc3O)nc3ccccc23)c1 | < 0.4
93 | S=C(NCCc1ccccn1)Nc1cc(Cl)cc(Cl)c1 | 19 (≈ 58.2 µM)
94 | COc1ccc(C(=O)c2ccccc2)c(OCC(=O)NC2CC2)c1 | 31.5 (≈ 96.8 µM)
95 | CC(C)N1CCN(Cc2cccc3nonc23)CC1CCO (stereo unspecified) | 42.2 (≈ 139 µM)
96 | Cc1cc(C)n2nc(SCc3ccc(C#N)cc3)nc2n1 | > 44.3
97 | Cc1ccccc1CN(C)C1CCN(C)CC1 | 31.7 (≈ 136 µM)
98 | Cc1ccc(O)c(NC(=O)c2cc(-c3cccs3)on2)c1 | 0.6 (≈ 2 µM)
99 | COc1ccc(NC(=O)CN2C(=O)NC(C)(c3ccc4c(c3)OCO4)C2=O)cc1S(N)(=O)=O (stereo unspecified) | 66.9 (≈ 140 µM)
100 | COc1ccccc1NC(=O)NCC1CC1(Cl)Cl (stereo unspecified) | 42.1 (≈ 146 µM)

Row | Compound | solubility kinetic [µg/mL]
101 | CCS(=O)(=O)N1CCN=C1SCc1ccc(F)cc1 | 39.9 (≈ 132 µM)
102 | O=C(CC(=O)Nc1nc(C23CC4CC(CC(C4)C2)C3)cs1)NCCO | 50.8 (≈ 140 µM)
103 | COCCCn1c(=O)c2ccccc2n(Cc2ccc(C)cc2)c1=O | 2.1 (≈ 6.21 µM)
104 | CC(C)CCN1CCC(N)=NC1=O | 26.8 (≈ 146 µM)
105 | COC(=O)c1ccc(C(=O)OC)c(NC(=O)C2CCCO2)c1 (stereo unspecified) | 45.3 (≈ 147 µM)
106 | O=C(COC(=O)CCN1C(=O)C2CC=CCC2C1=O)Nc1ccc([N+](=O)[O-])cc1 (stereo unspecified) | > 60.2
107 | COc1ccc(Cl)cc1/C=C/c1ccc2cccc(O)c2n1 | 0.8 (≈ 2.57 µM)
108 | CCOP(=O)(OCC)C(Nc1ccccc1)c1ccco1 (stereo unspecified) | > 46.4
109 | Cc1cc2nc(/N=C(\N)NC(=O)C(C)C)nc(C)c2cc1C | 2.9 (≈ 9.69 µM)
110 | O=C1c2ccccc2C(=O)N1CCn1ccnc1 | > 36.2
111 | Cc1oc(-c2cc(F)cc(F)c2)nc1CN1CCSCC1 | 26.3 (≈ 84.7 µM)
112 | Cc1ccc(C(C)NC(=O)c2ccncc2)c(C)c1 (stereo unspecified) | > 38.1
113 | O=C(CCCl)N1CCCC2(CCCCC2)C1 | 30.1 (≈ 123 µM)
114 | CCCCN(C)CCNC(=O)C(=O)c1c(C)[nH]c2ccccc12 | > 47.3
115 | CC1(C)CC(=O)C(CC(=O)N2CCC(Cc3ccccc3)CC2)C(=O)C1 | > 53.3
116 | Cc1ccc(N2C(=O)CC(C)(C)CC2=O)cc1Cl | 12.5 (≈ 47 µM)
117 | O=C(O)/C=C/C(=O)NCc1csc2ccccc12 | 5.2 (≈ 19.9 µM)
118 | Cc1c(-c2ccc(Br)cc2)[n+](=O)c2c(n1[O-])CCCCC2 | > 52.4
119 | CCc1nc(SCC(=O)Nc2ccc(N(C)C)cc2)n[nH]1 | > 45.8
120 | Cc1nccc(-c2cccc(NC(=O)Nc3ccc(Cl)cc3)c2)n1 | 0.6 (≈ 1.77 µM)
121 | COc1ccc(C=O)cc1Cn1c(C)cc(C)c(C#N)c1=O | 0.6 (≈ 2.02 µM)
